Assay type in all cases: in vivo, C57BL/6 male mice
The subject of assay [1] is animals with LPS-induced cognitive impairment. As to the kind of experiment: Animals with LPS-induced cognitive impairment: colitis improvement (colon). To be noted: LPS-treated mice, 1×10^9 CFU/mouse or sulfasalazine 50 mg/kg once a day for 5 days. The method, then: To 100 mg of colon tissue, 200 μl of 10 mM potassium phosphate buffer (pH 7.0) containing 0.5% hexadecyl trimethyl ammonium bromide was added and homogenized. Then, the supernatant was obtained by centrifugation for 10 minutes at 4° C. and 10,000 g. A volume of 50 μl of the supernatant was added to 0.95 mk of reaction solution (containing 1.6 mM tetramethyl benzidine and 0.1 mM H2O2), reacted at 37° C., and absorbance was monitored over time at 650 nm.
(§1) Hippocampus, colon, and spleen tissues were homogenized by adding 1 ml of RIPA buffer (Gibco) containing protease inhibitor cocktail and centrifuged at 4° C., 13000 rpm for 15 min to obtain supernatant. Indicators of this supernatant were measured using an ELISA kit (Ebioscience).
C57BL/6 male mice (5 weeks old, 19-21 g) were divided (6 mice in each group) and acclimatized to the laboratory for 1 week. To induce intestinal and brain diseases, mice were intraperitoneally administered Escherichia coli-derived LPS (10 μg/kg) once daily for 5 days. […] Experimental animals in the normal group were orally administered with a physiological saline solution, which was used to suspend lactic acid bacteria. The day following the conclusion of sample administration, the experimental animals were sacrificed, and samples from the brain hippocampus, colon, and spleen were collected. In the Hippocampus, inflammatory indicators, such as IFN-γ, TNF-α, and IL-10, were measured using ELISA. In the colon, intestinal length and inflammatory indicators, such as IFN-γ, TNF-α, and IL-10, were measured. In the spleen, Th1 cells and Treg cells were measured by FACS (Fluorescence-Activated Cell Sorting).

Assay [2] relates to animals with intestinal and brain diseases induced by TNBS. The assay is described as follows: Animals with intestinal and brain diseases induced by TNBS: cognitive improvement, hippocampus. To be noted: for Cognitive function Exploration (%) / Cognitive function Spont. alteration (%) / Concentration in the hippocampus IFN-γ / Concentration in the hippocampus IL-10 / Concentration in the hippocampus TNF-α: TNBS-treated mice, 1×10^9 CFU/mouse or sulfasalazine 50 mg/kg orally once a day for 5 days; for cognitive impairment caused by TNBS: result in words, summary of Table 18. The method, then: Indicators of this supernatant were measured using an ELISA kit (Ebioscience). […] The animal's movements were recorded, and reported as arm entries when the animal entered the arm with its hind paw, and the animal's movement was represented by an alternation, which was defined as one alternation when the animal passed through the three arms in succession. The amount of spontaneous alternation behavior was expressed as a percentage between the actual number of alternations and the maximum possible number of alternations (i.e., the total number of […] minus 2). The experiment was conducted in a box (40×40×40 cm) made so that the outside could not be seen from the inside. Two objects (A, A′) of the same shape and size were fixedly disposed in a box and the mouse was relocated to start from the center of the box. Then, the number of times the mouse made contact with the two objects was recorded for 10 minutes. After 24 hours, one of the two objects was replaced with a new object (A, B). Then, one original object and one new object were prepared, and the animal's exploration time was measured. C57BL/6 male mice (5 weeks old, 19-21 g) were divided (6 mice in each group) and acclimatized to the laboratory for 1 week. […] Meanwhile, the normal group was orally administered with 0.1 ml of physiological saline. From the next day, the mice were orally administered once a day for 5 days with lactic acid bacteria as a test sample suspended in physiological saline solution at a concentration of 1×10^9 CFU per mouse (NK210 alone (LR): 1×10^9 CFU/mouse, NK219 alone (BL): 1×10^9 CFU/mouse, NK209 alone (LL): 1×10^9 CFU/mouse, combined (MX, 210+219): NK210, 8×10^8 CFU/mouse and NK219, 2×10^8 CFU/mouse, combined (MX, 209+219) NK209, 8×10^8 CFU/mouse and NK219, 2×10^8 CFU/mouse, LR+BL+LL: NK210, 4×10^8 CFU/mouse, NK219, 2×10^8 CFU/mouse, and NK209, 4×10^8 CFU/mouse, heat treated (H—), respectively: 1×10^9 CFU/mouse). […] The day following the conclusion of sample administration, the experimental animals were sacrificed, and samples from the brain hippocampus, colon, and spleen were collected. In the Hippocampus, inflammatory indicators, such as TNF-α and IL-10, were measured using ELISA. In the colon, intestinal length and inflammatory indicators, such as TNF-α and IL-10, were measured. In the spleen, Th1 cells and Treg cells were measured by FACS (Fluorescence-Activated Cell Sorting).

Assay [3] relates to immunosuppressed animals induced by anticancer drug (cyclophosphamide). The assay is described as follows: Immunosuppressed animals induced by cyclophosphamide: improvement effect in spleen. To be noted: cyclophosphamide (CP)-treated mice, 1×10^9 CFU/mouse orally once a day for 5 days; for Foxp3 (fold change) / Tbet (fold change) / Tbet/Foxp3: spleen qPCR; for IFN-γ/IL-10 / IL-10 / Interferon (IFN)-γ / NK cell cytoxicity (%) / Phagocytosis (%) / TNF-a/IL-10 / TNF-α: spleen. The method, then:
as §1
mRNA was isolated from spleen tissue using the RNA Isolation Kit: RNeasy Mini Kit (QIAGEN), converted to cDNA, and qPCR was performed to measure the expression rates of Tbet, Foxp3, and glyceraldehyde 3-phosphate dehydrogenase (GAPDH). The reaction product was first treated at 95° C. for 30 seconds, followed by 38 cycles of 5 seconds at 95° C. and 30 seconds at 72° C. for analysis.
C57BL/6 male mice (5 weeks old, 19-21 g) were divided (6 mice in each group) and acclimatized to the laboratory for 1 week. To induce intestinal and brain diseases, the mice were administered with cyclophosphamide (CP, 150 mg/kg, dissolved in physiological saline) for 1 day, rested for 1 day, and then administered intraperitoneally the next day. Meanwhile, the normal group was administered intraperitoneally with 0.1 ml of physiological saline. […] The day following the conclusion of sample administration, the experimental animals were sacrificed, and samples from the brain hippocampus, colon, and spleen were collected. In the Hippocampus, inflammatory indicators, such as IFN-γ, TNF-α, and IL-10, were measured using ELISA. In the colon, intestinal length and inflammatory indicators, such as IFN-γ, TNF-α, and IL-10, were measured. In the spleen, Th1 cells and Treg cells were measured by FACS (Fluorescence-Activated Cell Sorting).

As to Bifidobacterium longum NK219, in assay [1], the “Colon (cm)” value was 4.8 cm, the IFN-γ/IL-10 was found to be 2.35, the IL-10 turned out to be 19.56 pg/mg and the “Interferon (IFN)-γ” value is 44.72 pg/mg. Moreover, in assay [1], the MPO activity came out at 4.30 μUnit/mg, the TNF-α is 18.59 pg/mg and the TNF-α/IL-10 is 0.96. For the same substance, in assay [2], the “Cognitive function Exploration (%)” value is given as 75.37%, the “Cognitive function Spont. alteration (%)” value is on record as 65.32%, the “Concentration in the hippocampus IFN-γ” value is 25.02 pg/mg and the “Concentration in the hippocampus IL-10” value stood at 40.26 pg/mg. Also, in assay [2], the “Concentration in the hippocampus TNF-α” value is 11.93 pg/mg and the “cognitive impairment caused by TNBS” value is recorded as “improved”. Also, in assay [3], the “Foxp3 (fold change)” value worked out at 0.36 fold change, the “Tbet (fold change)” value is 0.95 fold change, the Tbet/Foxp3 was 2.49 and the IFN-γ/IL-10 is on record as 2.11. Also, in assay [3], the IL-10 worked out at 2.90 pg/mg, the “Interferon (IFN)-γ” value is 5.56 pg/mg, the “NK cell cytoxicity (%)” value came out at 8.90% and the “Phagocytosis (%)” value is 50.36%. For the same substance, in assay [3], the TNF-a/IL-10 was found to be 0.87 and the TNF-α came out at 2.45 pg/mg.

As for Lactobacillus rhamnosus NK210, in assay [1], the “Colon (cm)” value is 5.0 cm, the IFN-γ/IL-10 is listed as 2.50, the IL-10 is reported as 21.10 pg/mg and the “Interferon (IFN)-γ” value was determined as 44.24 pg/mg. Moreover, in assay [1], the MPO activity is reported as 4.55 μUnit/mg, the TNF-α is 20.76 pg/mg and the TNF-α/IL-10 amounted to 0.98. Further, in assay [2], the “Cognitive function Exploration (%)” value is on record as 74.25%, the “Cognitive function Spont. alteration (%)” value stood at 62.45%, the “Concentration in the hippocampus IFN-γ” value was determined as 26.28 pg/mg and the “Concentration in the hippocampus IL-10” value came to 38.64 pg/mg. Besides, in assay [2], the “Concentration in the hippocampus TNF-α” value is reported as 12.14 pg/mg and the “cognitive impairment caused by TNBS” value is listed as “improved”. Further, in assay [3], the “Foxp3 (fold change)” value was 0.37 fold change, the “Tbet (fold change)” value was found to be 0.75 fold change, the Tbet/Foxp3 stood at 2.05 and the IFN-γ/IL-10 is given as 2.31. In assay [3], the IL-10 was found to be 3.31 pg/mg, the “Interferon (IFN)-γ” value stood at 7.39 pg/mg, the “NK cell cytoxicity (%)” value is given as 8.26% and the “Phagocytosis (%)” value was 58.65%. For the same substance, in assay [3], the TNF-a/IL-10 is listed as 1.04 and the TNF-α is 3.20 pg/mg.

For the substance Lactococcus lactis NK209, in assay [2], the “Cognitive function Exploration (%)” value is recorded as 70.20%, the “Cognitive function Spont. alteration (%)” value is listed as 58.8%, the “Concentration in the hippocampus IFN-γ” value was found to be 30.81 pg/mg and the “Concentration in the hippocampus IL-10” value came out at 35.53 pg/mg. Also, in assay [2], the “Concentration in the hippocampus TNF-α” value is recorded as 13.54 pg/mg.

Source of the values: patent publication US20250009819A1, “NOVEL PROBIOTICS AND USE THEREOF” (PBLBIOLAB CO., LTD., priority 2021, published 2025).
